From US10703748B2, “Diazanaphthalen-3-yl carboxamides and preparation and use thereof” (Samumed, LLC, priority 2017, dated 2020) come the findings set out here.

One assay addresses DYRK1A kinase (Homo sapiens, UniProt Q13627). The assay can be described thus: DYRK1A kinase activity (Ser/Thr 18 peptide Z-lyte FRET assay).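 Note: kinase activity read as coumarin/fluorescein emission ratio after development step, with unphosphorylated and phosphorylated peptide forms setting 0% and 100% controls, values from dose-response curves.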 The assay is classed as biochemical. The settings on record: recombinant DYRK1A, 30 μM ATP, one hour at room temperature.
For the next assay, the target named is GSK3β kinase (Homo sapiens, UniProt P49841). The assay can be described thus: GSK3β kinase activity (Ser/Thr 09 peptide Z-lyte FRET assay). The assay is classed as biochemical. The settings on record: recombinant kinase, 46 μM ATP, one hour at room temperature; read-out: EC50.
The subject of assay [1] is Tau phosphorylation at Ser396 (pSer396). The assay can be described thus: Tau phosphorylation at Ser396 (pSer396) in SH-SY5Y cells, ELISA / western blot.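 Note: decrease in pSer396 Tau measured in lysates of treated cells by colorimetric ELISA or chemiluminescent western blot, same pSer396 antibody for both.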 It is filed as cell-based, human. The settings on record: Homo sapiens; SH-SY5Y cells, overnight (16-18 h); read-out: pSer396 Tau EC50. In general terms: ELISA stands for enzyme-linked immunosorbent assay.
Description: Two days before treatment, cells were seeded onto 96 well plates at 5×10^4 cells/well.
The above synthesized compounds were screened using the cell assay procedure to assess decrease Tau phosphorylation at Ser396 (pSer396) described below.
Cells were lysed with RIPA buffer complemented with phosphatase and protease inhibitors then lysates were spun down at 12,000 g for 10 min to remove any cellular debris.
In assay [2] the test system is Tau phosphorylation at Threonine 212 (pT212Tau). The experiment in a line: Tau phosphorylation at Threonine 212 (pT212Tau) in Dyrk1a- and MAPT-overexpressing HEK293T cells, sandwich ELISA. The assay is classed as cell-based. The following applies: Homo sapiens, HEK-293T, overnight (16-18 hours), read-out: Thr212 EC50. The protocol: HEK293T cells (transfectable human embryonic kidney cells) were cultured in DMEM medium supplemented with 10% FBS and 1% penicillin/streptomycin.
HEK293T cells were transiently transfected to overexpress Dyrk1a and microtubule-associated protein Tau (MAPT) genes. Specifically, Dyrk1a and MAPT expression vectors were obtained from OriGene (10 μg of each, catalog numbers SC314641 and RC216166, respectively). A MaxiPrep for each vector was ordered and received from GeneWiz, yielding 874.5 μg (resuspended at […]) of the Dyrk1a expression vector, and 898 μg (resuspended at […]) of MAPT.
HEK293T cells were seeded at 1.0×10^7 cells in 10 mL per T-75 flask. […] One T-75 flask was designated as a no-vector negative control for pT212Tau signal.
After 4-6 hours of incubation in transfection reagents, transiently double transfected HEK293T cells were dissociated by treatment with trypsin EDTA and seeded at 1.0×10^5 cells in 100 μL per well in 96-well plates. No-vector negative controls were seeded in separate 96-well plates to avoid the risk of the negative control cells picking up the overexpression during incubation. At the time of seeding, DMSO-resuspended Samumed compounds were dispensed to eight wells as a serial dilution from 10 μM to 4.6 nM final concentration in medium, or at 0.12 μM to 0.05 nM with particularly potent compounds. Cells were exposed to the representative compounds overnight (16-18 hours) in a 37° C. incubator.
96-Well flat-bottom plates were coated with 100 μL per well anti-HT7 capture antibody (ThermoFisher, MN1000) diluted 1:300 in 1×PBS at 4° C. overnight, with shaking at 500 rpm. After overnight capture antibody incubation, coated plates were washed four times with 200 μL per well of 1×PBS-0.05% Tween-20, and blocked for 1 hour with 200 μL per well of 1×PBS with 2% BSA. After 1 hour of blocking, plates were washed four times with 200 μL per well of 1×PBS-0.05% Tween-20, prior to sample loading.
Wells of compound-treated cells were visually checked for cell death before being washed with 200 μL per well of 1×DPBS supplemented with phosphatase inhibitor diluted to 1×. Cells were then lysed with 100 μL 1×RIPA buffer supplemented with phosphatase and protease inhibitors (each diluted to a final 1×). Cells were shaken at 500 rpm, 4° C. for 20 minutes prior to further lysis (via manual scraping) and transfer to 96-well V-bottom collection plates (Corning, 3894). V-bottom plates were centrifuged at 4000 rpm, 4° C., for 15 minutes, and 100 μL of lysate supernatant from each well was directly tested for pT212Tau signal by sandwich ELISA.
Specifically, lysates were directly transferred to the coated and blocked ELISA plates for 2 hours before plates were washed four times with 200 μL per well of 1×PBS-0.05% Tween-20 and probed with 100 μL per well of anti-pT212Tau antibody (ThermoFisher, 44-740G) diluted 1:200 in 1×PBS for 2 hours. Plates were washed four times with 200 μL per well of 1×PBS-0.05% Tween-20 and probed with 100 μL per well of anti-rabbit/HRP conjugate (Cell Signaling Technology, 7074S) diluted 1:600 in 1×PBS for 1 hour. Plates were washed four times with 200 μL per well of 1×PBS-0.05% Tween-20 before 100 μL per well of TMB substrate solution (ThermoFisher, N301) was added. When colour development was observed, 100 μL per well of stop solution (ThermoFisher, N600) was added, and colorimetric detection of pT212Tau signal was read at 450 nm with the Cytation 3 Cell Imaging Multi-Mode Reader (BioTek). The signal was used to plot, draw the curves fitting, and determine the EC50 values in GraphPad Prism for tested representative compounds.

For assay [3], the system named is secreted cytokines TNFα, IL-6 and KC-GRO. The assay can be described thus: Secreted cytokines in Lipopolysaccharide-stimulated BV-2 cells (Table 9 does not say which cytokine). The settings on record: Mus musculus, BV-2, 5 h; read-out: EC50. The assay is classed as cell-based, mouse.
For assay [4], the system named is SW480 colon carcinoma cells. The assay can be described thus: Cell viability assay (CellTiter-Glo). The settings on record: Homo sapiens; for EC50: SW480, 96 h.
For assay [5], the system named is Wnt-responsive Sp5-Luc reporter in SW480 colon carcinoma cells. The assay can be described thus: Screening assay for Wnt activity (Sp5-Luc reporter gene assay). The settings on record: Homo sapiens, SW480. (A reporter such as luciferase makes a cellular process visible.)
The subject of another assay is IL-6. The assay can be described thus: IL-6 inhibition in LPS-stimulated human peripheral blood mononuclear cells (HTRF). The settings on record: Homo sapiens, PBMC; for EC50: 22 h; for inhibition at 10 µM: read-out: percentage in parentheses after EC50 >10. In general terms: Time-resolved FRET reads energy transfer from a long-lived donor to a nearby acceptor.
Assay [6] relates to α-smooth muscle actin (aSMA) positive LL29 cells. The experiment in a line: Inhibition of the fibrotic process: αSMA staining in TGF-β1 treated LL29 fibroblasts from IPF patients. The following applies: Homo sapiens, Fibroblast; for EC50: 96 h.

Sequence of GSK3β kinase (P49841 whole entry): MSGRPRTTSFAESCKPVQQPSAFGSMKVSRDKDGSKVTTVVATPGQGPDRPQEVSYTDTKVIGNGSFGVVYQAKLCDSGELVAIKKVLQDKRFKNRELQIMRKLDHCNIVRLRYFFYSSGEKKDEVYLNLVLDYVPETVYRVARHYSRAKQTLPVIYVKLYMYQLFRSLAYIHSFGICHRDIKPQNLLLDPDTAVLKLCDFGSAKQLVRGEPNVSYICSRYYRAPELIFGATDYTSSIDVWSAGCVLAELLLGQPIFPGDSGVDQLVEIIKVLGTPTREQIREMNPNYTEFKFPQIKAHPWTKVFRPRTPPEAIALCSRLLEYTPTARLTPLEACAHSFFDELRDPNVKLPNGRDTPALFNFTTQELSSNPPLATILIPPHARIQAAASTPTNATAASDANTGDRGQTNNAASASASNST

Consider `Cn1cc(-c2cc3cc(NC(=O)C4CCNCC4)ncc3cn2)cn1` [Compound 3638, N-(6-(1-Methyl-1H-pyrazol-4-yl)-2,7-naphthyridin-3-yl)piperidine-4-carboxamide], for which the EC50 (commonly the concentration needed to bring the measured effect to its halfway point) on DYRK1A kinase worked out at 6 nM; on GSK3β kinase, 27 nM; in assay [1] it was 1500 nM; in assay [2] it was 112 nM; in assay [3] it was 1400 nM; in assay [4], 6920 nM. Also, the EC50 is 593 nM in [5], more than 10000 nM with IL-6 and more than 10000 nM in assay [6]. Besides, the figures for the inhibition at 10 µM (in the assay on IL-6; in [6] (read-out: percentage in parentheses after EC50 >10)) were 6.3% and 34.9%, respectively.

As for `CC(C)CN1CCC(C(=O)Nc2cc3cc(-c4cnn(C)c4)ncc3cn2)CC1` [Compound 3643, 1-Isobutyl-N-(6-(1-methyl-1H-pyrazol-4-yl)-2,7-naphthyridin-3-yl) piperidine-4-carboxamide], the concentration for a half-maximal effect (EC50) is 10 nM on DYRK1A kinase; 31 nM on GSK3β kinase; 102 nM in assay [1]; 30 nM in assay [2]; 3900 nM in [3]; 6990 nM in assay [4]. For the same compound, the values for the EC50 (in assay [5]; in the assay on IL-6; in assay [6]) were 73 nM, more than 10000 nM and 2500 nM, respectively. Besides, the inhibition at 10 µM in the assay with IL-6 came out at 9.8%.

For `Cc1ncc(-c2ccc3cnc(NC(=O)C4CCN(C(=O)CN5CCCC5)CC4)cc3n2)s1` [Compound 4561, N-(2-(2-Methylthiazol-5-yl)-1,6-naphthyridin-7-yl)-1-(2-(pyrrolidin-1-yl)acetyl)piperidine-4-carboxamide], the EC50 at DYRK1A kinase is 7 nM; at GSK3β kinase, 182 nM; in assay [1], 2100 nM; in assay [2], 306 nM; in assay [3], 129 nM; in assay [4], more than 10000 nM. Also, the EC50 in [5] is 953 nM; in the assay with IL-6, 4560 nM; in [6], 664 nM. The inhibition at 10 µM in [4] (SW480, read-out: percent inhibition at 10 μM) was determined as 49.5%.
